In general, LD50 refers to the dose expected to kill half of the subjects tested.

One series is described as follows: toxicity tests on mice. Format: in vivo. To be noted: mouse, in vivo, ip, intraperitoneal administration, calculated from LD0 and LD100. How it is done: (§1) 5, 10 or 20% of active agent were suspended in 0.1% agar gel, and the obtained homogeneous suspensions were injected intraperitoneally into mice, or were administered into the stomach of the animals via a stomach tube. The animals were kept under observation for one week after a single treatment, and the toxicity data were evaluated on the basis of the percentage deaths observed in this period.

The test system of the next series is mice. Kind of series: toxicity tests on mice. To be noted: single treatment, one week observation. Format: in vivo. How it is done:
as §1

Setting [1] is: oral administration (stomach tube).

Take `CCOC(=O)C(C#N)N=Nc1cccc(Cl)c1` (centres unmarked) [C2 H5 -- H Cl H]: the LD50 at 168 h in the series “toxicity tests on mice” was 400 mg/kg. The LD0 in the series with mice (intraperitoneal administration) came out at 200 mg/kg; in the series with mice (setting [1]), 6000 mg/kg. Besides, the LD100 worked out at 600 mg/kg in the series on mice (intraperitoneal administration) and 6000 mg/kg in the series on mice (setting [1]).
As for `CCOC(=O)C(C#N)N=Nc1ccc(Cl)cc1` (centres unmarked) [C2 H5 -- H H Cl], the LD50 at 168 h in the series “toxicity tests on mice” is 400 mg/kg. Moreover, in the series with mice (intraperitoneal administration), the LD0 was determined as 200 mg/kg and the LD100 amounted to 600 mg/kg. Moreover, in the series with mice (setting [1]), the LD0 amounted to 6000 mg/kg and the LD100 came out at 6000 mg/kg.
Consider `CC(C)OC(=O)C(C#N)N=Nc1cccc(Cl)c1` (centres unmarked) [i-C3 H7 -- H Cl H], for which the 50% lethal dose (LD50) at 168 h in the series “toxicity tests on mice” is 500 mg/kg. In the series with mice (intraperitoneal administration), this compound showed an LD0 of 300 mg/kg and an LD100 of 800 mg/kg. Also, in the series on mice (setting [1]), the LD0 was found to be 6000 mg/kg and the LD100 was 6000 mg/kg.
With `CC(C)OC(=O)C(C#N)N=Nc1ccc(Cl)cc1` (centres unmarked) [i-C3 H7 -- H H Cl], the LD50 at 168 h in the series “toxicity tests on mice” is 600 mg/kg. In addition, in the series on mice (intraperitoneal administration), the LD0 came to 400 mg/kg and the LD100 was 1000 mg/kg. In the series on mice (setting [1]), this compound displayed an LD0 of 6000 mg/kg and an LD100 of 6000 mg/kg.
Consider `CCCOC(=O)C(C#N)N=Nc1cccc(Cl)c1` (centres unmarked) [n-C3 H7 -- H Cl H], for which the LD50 at 168 h in the series “toxicity tests on mice” was 500 mg/kg. In the series on mice (intraperitoneal administration), this compound had an LD0 of 300 mg/kg and an LD100 of 800 mg/kg. In the series on mice (setting [1]), this compound returned an LD0 of 6000 mg/kg and an LD100 of 6000 mg/kg.
For the compound `CCCOC(=O)C(C#N)N=Nc1ccc(Cl)cc1` (centres unmarked) [n-C3 H7 -- H H Cl], the LD50 at 168 h in “toxicity tests on mice” was 600 mg/kg. Besides, in the series on mice (intraperitoneal administration), the LD0 turned out to be 400 mg/kg and the LD100 stood at 1000 mg/kg. In the series with mice (setting [1]), this compound showed an LD0 of 6000 mg/kg and an LD100 of 6000 mg/kg.
For the compound `CCCCOC(=O)C(C#N)N=Nc1cccc(Cl)c1` (centres unmarked) [n-C4 H9 -- H Cl H], the LD50 at 168 h in “toxicity tests on mice” is 800 mg/kg. In the series with mice (intraperitoneal administration), this compound had an LD0 of 500 mg/kg and an LD100 of 1000 mg/kg. In the series with mice (setting [1]), this compound yielded an LD0 of 6000 mg/kg and an LD100 of 6000 mg/kg.
`CCCCOC(=O)C(C#N)N=Nc1ccc(Cl)cc1` (centres unmarked) [n-C4 H9 -- H H Cl]: the LD50 at 168 h in the series “toxicity tests on mice” is 800 mg/kg. Besides, the LD0 in the series with mice (intraperitoneal administration) was 500 mg/kg; with mice (setting [1]), 6000 mg/kg. Besides, the LD100 with mice (intraperitoneal administration) amounted to 1000 mg/kg; in the series with mice (setting [1]), 6000 mg/kg.
For `CCCCOC(=O)C(C#N)N=Nc1ccc([N+](=O)[O-])cc1` (centres unmarked) [n-C4 H9 -- H H NO2 --], the LD50 at 168 h in the series “toxicity tests on mice” was 600 mg/kg. In the series with mice (intraperitoneal administration), this compound gave an LD0 of 400 mg/kg and an LD100 of 800 mg/kg. In the series with mice (setting [1]), this compound displayed an LD0 of 6000 mg/kg and an LD100 of 6000 mg/kg.
As to `CCCCOC(=O)C(C#N)N=Nc1cccc([N+](=O)[O-])c1` (centres unmarked) [n-C4 H9 -- H NO2 -- H], the LD50 at 168 h in “toxicity tests on mice” was 600 mg/kg. In the series on mice (intraperitoneal administration), the LD0 was 400 mg/kg and the LD100 came to 800 mg/kg. In addition, in the series with mice (setting [1]), the LD0 was found to be 6000 mg/kg and the LD100 is 6000 mg/kg.

(Values after patent publication US4058608A, “Method of treating fungus-infected plants with phenylazocyanoacetic ester derivatives” (Chinoin Gyogyszer es Vegyeszeti Termekek Gyara RT, priority 1974, dated 1977).)
